From PMC12669672, “Structural insights into selective and dual antagonism of EP2 and EP4 prostaglandin receptors” (The EMBO Journal, 2025)
Several values for one entry are separate records, joined by “and”; a condition that tells them apart may be missing. Identical values can stand only once.

Legend:
[1] = biological target: T1, EP2-D311A (Homo sapiens, UniProt P43116, D311A); experiment: GloSensor cAMP assay, PGE2 induced cAMP signaling (activation); format: cell-based
T1 construct: The full-length EP2 or EP4 was cloned into the pcDNA3.1 vector (Invitrogen), incorporating an N-terminal FLAG tag; expressed in transfected cells; host or cells: AD293
Method: (§1) The full-length EP2 or EP4 was cloned into the pcDNA3.1 vector (Invitrogen), incorporating an N-terminal FLAG tag. AD293 cells were seeded in six-well plates containing DMEM supplemented with 10% dialyzed FBS 1 day prior to transfection. Following overnight growth, cells were transfected with a 1:1 ratio of receptor construct and GloSensor22F cAMP biosensor (Promega) plasmids.
(§2) Twenty-four hours post-transfection, the cells were transferred to CO2-independent media containing 2% GloSensor cAMP Reagent (Promega) and distributed into 384-well assay plates at a density of 4000 cells per well in 10 μL. […] The plates were then incubated at 37 °C for an additional hour before luminescence measurements were taken using an EnVision plate reader.
(§3) Data analysis was performed using GraphPad Prism software v8.0.1. A nonlinear regression analysis, employing a sigmoidal dose–response model, was conducted to determine the Emax values and half-maximum inhibitory concentrations (IC50) for each compound tested.

[2] = biological target: T2, EP2-F273A (Homo sapiens, UniProt P43116, F273A); experiment: as above; format: cell-based
T2 construct: The full-length EP2 or EP4 was cloned into the pcDNA3.1 vector (Invitrogen), incorporating an N-terminal FLAG tag; expressed in transfected cells; host or cells: AD293
Method: as §1, §2, §3

[3] = biological target: EP2 WT (Homo sapiens, UniProt P43116); experiment: as above; format: cell-based; parameters: The full-length EP2 or EP4 was cloned into the pcDNA3.1 vector (Invitrogen), incorporating an N-terminal FLAG tag; expressed in transfected cells; host or cells: AD293
Method: as §1, §2, §3

[4] = tested on: WT and mutant EP2 receptors; experiment: Cell-surface expression, FACS with anti-FLAG FITC antibody; parameters: species or system human; details: single experiments 1st-3rd
Method: Cell-surface expression levels of both wild-type and mutant receptors were assessed using a fluorescence-activated cell sorting (FACS) assay. Briefly described, AD293 cells expressing FLAG-tagged EP2 or EP4 receptors were collected 24 h post-transfection. These cells were then incubated with a mouse anti-FLAG FITC-conjugated antibody (Sigma) at a 1:200 dilution for 2 h at 4 °C in a dark environment. Subsequently, cells were washed with 100 µL of PBS. Surface expression levels were quantified by measuring the fluorescence intensity of FITC using a Guava® easyCyte flow cytometer. Data were normalized relative to the expression levels of the wild-type receptors. These experiments were conducted in triplicate, and the results were expressed as mean ± S.E.M.

[5] = 1 h, PGE2 log([M]) -7, single experiments 1st-3rd, Fig. 2D, read-out: % cAMP activity (normalized to WT)
[6] = single experiments 1st-3rd, Appendix Fig. S6A

Sequence of EP2 WT (P43116 whole entry): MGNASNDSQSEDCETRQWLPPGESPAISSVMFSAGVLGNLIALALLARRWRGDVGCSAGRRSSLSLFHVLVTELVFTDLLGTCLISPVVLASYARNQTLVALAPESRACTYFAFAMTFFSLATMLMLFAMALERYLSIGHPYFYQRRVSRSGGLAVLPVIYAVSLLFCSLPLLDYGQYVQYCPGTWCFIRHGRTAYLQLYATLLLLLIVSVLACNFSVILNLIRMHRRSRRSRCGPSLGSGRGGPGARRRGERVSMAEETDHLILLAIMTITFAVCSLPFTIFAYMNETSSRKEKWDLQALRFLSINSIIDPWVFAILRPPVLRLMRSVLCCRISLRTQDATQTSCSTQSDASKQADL
T2 sequence (P43116 whole entry F273A): as the sequence (P43116 whole entry) above, with F273A counted along it
T1 sequence (P43116 whole entry D311A): as the sequence (P43116 whole entry) above, with D311A counted along it

Row | Compound | Surface expression ( 100% WT) [4] | further results
1 | CCCCC[C@H](O)/C=C/[C@H]1[C@H](O)CC(=O)[C@@H]1C/C=C\CCCC(=O)O [PGE2, Prostaglandin E2] | – | remaining activity at 0.1 µM [1, 5]: 91.9%; Emax ([1]; mean ± S.E.M., n = 3): 92.4 ± 3.9%; PGE2 cAMP activity (∆pIC50 from EP2 WT) [1, 6]: -1.566 and -1.416 and -1.487; remaining activity at 1 µM ([2]; 1 h, PGE2 log([M]) -6, single experiments 1st-3rd, Fig. 2D, read-out: % cAMP activity (normalized to WT)): 96.2%; remaining activity at 0.1 µM [2, 5]: 32.4%; Emax ([2]; mean ± S.E.M., n = 3): 117 ± 2.9%; remaining activity at 0.0001 µM ([3]; 1 h, PGE2 log([M]) -10, single experiments 1st-3rd, Fig. 2D, read-out: % cAMP activity (normalized to WT)): 16.5%; Emax ([3]; mean ± S.E.M., n = 3): 100 ± 3.9%; PGE2 cAMP activity (∆pIC50 from EP2 WT) [3, 6]: 0.007 and -0.051 and 0.045
2 | EP2 E23A | 92.71% and 100.19% and 95.51% | –
3 | EP2 M116A | 99.63% and 105.23% and 100.56% | –
4 | EP2 S28A | 106.92% and 107.85% and 105.61% | –
5 | EP2 S86A | 89.91% and 90.65% and 110.47% | –
6 | EP2 S305A | 98.88% and 97.38% and 93.83% | –
7 | EP2 S308A | 115.51% and 112.90% and 88.41% | –
8 | EP2 T82A | 106.36% and 116.26% and 103.74% | –
9 | EP2 W186A | 116.07% and 83.36% and 84.86% | –
10 | EP2 WT | 104.67% and 99.81% and 95.51% | –
